In BindingDB's records for doi:10.1021/jm00160a049 (1986):

Biological target: T1, Renin (Homo sapiens, UniProt P00797)
T1 sequence (P00797 whole entry): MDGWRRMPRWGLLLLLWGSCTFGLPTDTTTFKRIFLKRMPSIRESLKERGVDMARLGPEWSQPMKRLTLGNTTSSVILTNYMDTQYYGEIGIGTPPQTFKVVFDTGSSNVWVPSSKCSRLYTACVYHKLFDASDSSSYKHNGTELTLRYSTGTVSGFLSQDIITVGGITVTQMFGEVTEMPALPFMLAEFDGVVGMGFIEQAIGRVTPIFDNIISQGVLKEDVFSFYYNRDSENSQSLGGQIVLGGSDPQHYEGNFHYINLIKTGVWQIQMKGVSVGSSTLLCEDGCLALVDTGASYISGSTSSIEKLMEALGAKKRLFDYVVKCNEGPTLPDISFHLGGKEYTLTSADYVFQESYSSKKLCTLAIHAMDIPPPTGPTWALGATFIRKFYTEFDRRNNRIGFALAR
Test: ChEBML_195744
From the text: Inhibition of human plasma renin

`CC[C@H](C)[C@H](NC(=O)[C@@H](C[C@H](O)[C@H](CC(C)C)NC(=O)[C@H](Cc1c[nH]cn1)N(C)C(=O)[C@H](Cc1ccccc1)NC(=O)[C@@H]1CCCN1C(=O)OC(C)(C)C)C(C)C)C(=O)NCc1ccccn1` [2-(1-{[1-(2-Hydroxy-1-isobutyl-5-methyl-4-{2-methyl-1-[(pyridin-2-ylmethyl)-carbamoyl]-butylcarbamoyl}-hexylcarbamoyl)-2-(3H-imidazol-4-yl)-ethyl]-methyl-carbamoyl}-2-phenyl-ethylcarbamoyl)-pyrrolidine-1-carboxylic acid tert-butyl ester] gave an IC50 of 0.65 nM.
